In PMC10179075 (International Journal of Molecular Sciences, 2023):
Changes are numbered by the printed parent chain. Read-outs that look alike come from different tables or passages of the source.

How the values were obtained:
[1] = target: T1, natural (wild type) E. indica EPSPS (EiEPSPS), recombinant expressed in E. coli (Eleusine indica, UniProt Q95AK0); assay: ForteBio Octet binding kinetics, wild type EPSPS
T1 sequence (Q95AK0 43-445): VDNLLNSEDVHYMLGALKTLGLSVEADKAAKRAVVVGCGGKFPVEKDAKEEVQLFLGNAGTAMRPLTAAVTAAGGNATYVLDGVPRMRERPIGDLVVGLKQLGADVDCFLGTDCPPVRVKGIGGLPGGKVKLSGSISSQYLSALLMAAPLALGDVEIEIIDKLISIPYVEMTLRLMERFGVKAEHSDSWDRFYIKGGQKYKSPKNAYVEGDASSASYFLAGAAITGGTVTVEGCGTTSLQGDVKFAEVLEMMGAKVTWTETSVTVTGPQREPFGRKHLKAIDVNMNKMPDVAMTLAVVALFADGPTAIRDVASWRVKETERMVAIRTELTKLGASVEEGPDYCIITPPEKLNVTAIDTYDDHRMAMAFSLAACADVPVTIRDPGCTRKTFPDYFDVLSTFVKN
Description: (§1) Target EPSPS genes with different mutations were amplified through PCR using primers (Supplementary Table S4) and the synthesised cDNA, then cloned into the BamHI and HindIII cleavage sites of the pET-28a expression vector (New England Biolabs Inc., Ipswich, MA, USA). After DNA sequencing, the pET-28a plasmid (Thermo Fisher Scientific Inc., Waltham MA, USA) containing the target genes was transformed into BL21 (DE3) cells (Thermo Fisher Scientific Inc.). Selected clones were cultured in Luria-Bertani medium. Cells containing target genes that had grown to an OD600 of 0.5 were induced with […] IPTG (0487; Amresco LLC, Solon, OH, USA) at 37 °C for 4 h. The cells were then pelleted through centrifugation at 10,000× g for 10 min and resuspended in 50 mM Tris-HCl and 150 mM NaCl, pH 7.4 (buffer A). The suspension was sonicated and centrifuged at 12,000× g for 30 min, the supernatant was filtered through a 0.22 µm membrane and passed through a HiTrap His column (10318950; Cytiva, Global Life Sciences Solutions USA, LLC., Marlborough, MA, USA). […] Target protein concentrations were determined using the Bradford method (500-0001) with Dye Reagent (both from Bio-Rad Laboratories Inc., Hercules, CA, USA).
To prevent primary amines reducing the biotinylation ratio, the EPSPS and mutations were exchanged with PBS buffer using a PD10 desalting column (17085101; Cytiva, Global Life Sciences Solutions USA, LLC.) as described by the manufacturer. The proteins were then concentrated using an ultrafilter (Merck KGaA, Darmstadt, Germany), then the concentrations were determined, as described above. […] A mixture of protein and sulfo-NHS-LC-biotin at a molar ratio of 1:5 was incubated at 4 °C for 16 h, then free biotin molecules were removed using a PD10 desalting column and biotinylated protein concentrations were measured using the Bradford method. […]
(§2) Data for protein-small molecule binding studies and curve fitting were analysed using ForteBio Data Analysis Software v. […]

[2] = target: E. indica EPSPS Pro106Leu (P106L) mutant, recombinant expressed in E. coli (Eleusine indica, UniProt Q95AK0, P107L); assay: biochemical; format: binding
E. indica EPSPS Pro106Leu (P106L) mutant, recombinant expressed in E. coli, sequence (Q95AK0 entry or part of it P107L): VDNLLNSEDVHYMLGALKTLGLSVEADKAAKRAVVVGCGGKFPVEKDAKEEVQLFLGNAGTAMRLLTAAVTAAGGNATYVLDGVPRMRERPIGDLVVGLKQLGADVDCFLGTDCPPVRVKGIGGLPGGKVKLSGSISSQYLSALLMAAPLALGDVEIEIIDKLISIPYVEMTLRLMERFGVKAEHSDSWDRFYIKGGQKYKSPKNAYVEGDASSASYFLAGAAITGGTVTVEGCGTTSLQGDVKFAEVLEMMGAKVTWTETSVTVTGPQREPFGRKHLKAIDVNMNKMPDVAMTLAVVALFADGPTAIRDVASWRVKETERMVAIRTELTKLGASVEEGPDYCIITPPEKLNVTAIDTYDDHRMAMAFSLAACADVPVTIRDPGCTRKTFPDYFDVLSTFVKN
Description: (§3) Target EPSPS genes with different mutations were amplified through PCR using primers (Supplementary Table S4) and the synthesised cDNA, then cloned into the BamHI and HindIII cleavage sites of the pET-28a expression vector (New England Biolabs Inc., Ipswich, MA, USA). After DNA sequencing, the pET-28a plasmid (Thermo Fisher Scientific Inc., Waltham MA, USA) containing the target genes was transformed into BL21 (DE3) cells (Thermo Fisher Scientific Inc.). Selected clones were cultured in Luria-Bertani medium. Cells containing target genes that had grown to an OD600 of 0.5 were induced with […] IPTG (0487; Amresco LLC, Solon, OH, USA) at 37 °C for 4 h. The cells were then pelleted through centrifugation at 10,000× g for 10 min and resuspended in 50 mM Tris-HCl and 150 mM NaCl, pH 7.4 (buffer A). The suspension was sonicated and centrifuged at 12,000× g for 30 min, the supernatant was filtered through a 0.22 µm membrane and passed through a HiTrap His column (10318950; Cytiva, Global Life Sciences Solutions USA, LLC., Marlborough, MA, USA). Target proteins were eluted with 50 mM Tris-HCl, 150 mM NaCl, 500 mM imidazole, pH 7.4 (buffer B), resolved through SDS-PAGE, and identified through MALDI-TOF mass spectrometry. Target protein concentrations were determined using the Bradford method (500-0001) with Dye Reagent (both from Bio-Rad Laboratories Inc., Hercules, CA, USA).
(§4) To prevent primary amines reducing the biotinylation ratio, the EPSPS and mutations were exchanged with PBS buffer using a PD10 desalting column (17085101; Cytiva, Global Life Sciences Solutions USA, LLC.) as described by the manufacturer. The proteins were then concentrated using an ultrafilter (Merck KGaA, Darmstadt, Germany), then the concentrations were determined, as described above. The proteins were biotinylated using the EZ-Link™ Sulfo-NHS-LC-biotinylation kit (21435; Thermo Fisher Scientific Inc.) as described by the manufacturer. A mixture of protein and sulfo-NHS-LC-biotin at a molar ratio of 1:5 was incubated at 4 °C for 16 h, then free biotin molecules were removed using a PD10 desalting column and biotinylated protein concentrations were measured using the Bradford method.
(§5) We used a ForteBio Octet 96 with high-capacity Super Streptavidin (SSA) biosensors (18-5057; Sartorius Stedim Biotech GmbH, Göttingen, Germany) to study the protein-small molecule binding, and to derive the relevant kinetic data, as well as the affinity constants. The SSA sensors were activated in 50 mM HEPES buffer (pH 7.5) containing 0.02% Tween 20 (v/v) for 10 min, then biotinylated proteins were loaded onto them online for 2 min. Thereafter, the sensors were quenched with 2 μg mL^−1 of biocytin (B1592 Thermo Fisher Scientific Inc.) for 60 s. […] To obtain accurate interaction kinetics, a reference well (containing only buffer) and a reference biosensor were included in the assay for double subtraction analysis.
(§6) Data for protein-small molecule binding studies and curve fitting were analysed using ForteBio Data Analysis Software v. 9.0. Dissociation constants (KD) indicating binding affinity for protein-small molecules were derived by determining Kon and Koff (association and disassociation rate constants, respectively); KD = Koff/Kon.

[3] = target: E. indica EPSPS Pro106Ser (P106S) mutant, recombinant expressed in E. coli (Eleusine indica, UniProt Q95AK0, P107S); assay: biochemical; format: binding
E. indica EPSPS Pro106Ser (P106S) mutant, recombinant expressed in E. coli, sequence (Q95AK0 entry or part of it P107S): as the sequence (Q95AK0 entry or part of it P107L) above, with L65S counted along it
Description: as §3, §4, §5, §6

[4] = target: E. indica EPSPS Thr102Ile + Pro106Ser (TIPS) mutant, recombinant expressed in E. coli (Eleusine indica, UniProt Q95AK0, P107S/T103I); assay: biochemical; format: binding
E. indica EPSPS Thr102Ile + Pro106Ser (TIPS) mutant, recombinant expressed in E. coli, sequence (Q95AK0 entry or part of it T103I/P107S): as the sequence (Q95AK0 entry or part of it P107L) above, with T61I, L65S counted along it
Description: as §3, §4, §5, §6

[5] = target: E. indica EPSPS enzymes (WT, P106L, P106S, TIPS); assay: ForteBio Octet binding, range over the EPSPS enzymes; parameters: species or system Eleusine indica
Description: as §1, with “h.” for “h. The cells were then pelleted through centrifugation at 10,000× g for 10 min and resuspended in 50 mM Tris-HCl and 150 mM NaCl, pH 7.4 (buffer A). The suspension was sonicated and centrifuged at 12,000× g for 30 min, the supernatant was filtered through a 0.22 µm membrane and passed through a HiTrap His column (10318950; Cytiva, Global Life Sciences Solutions USA, LLC., Marlborough, MA, USA).”
To prevent primary amines reducing the biotinylation ratio, the EPSPS and mutations were exchanged with PBS buffer using a PD10 desalting column (17085101; Cytiva, Global Life Sciences Solutions USA, LLC.) as described by the manufacturer. The proteins were then concentrated using an ultrafilter (Merck KGaA, Darmstadt, Germany), then the concentrations were determined, as described above. […]
as §2

[6] = target: T2, His-tagged recombinant EiEPSPS, Pro106Ser (SS) (Eleusine indica, UniProt Q95AK0, P107S); assay: EPSPS Michaelis-Menten kinetics, Pro106Ser; format: biochemical; conditions: P106S mutant vs natural EPSPS
T2 sequence (Q95AK0 43-445 P107S): T1 sequence (Q95AK0 43-445) with P65S
Source text: (§7) Figure 2 Characteristics of EPSPS with different mutations (WT, P106S, P106L, and TIPS) from purified enzyme extracts of Escherichia coli variants. […] Reactions were detected as phosphate concentrations based on a standard curve (y = 97.049x − 0.4245, R^2 = 0.99). This experiment was repeated twice with three biological replicates.
as §1, with “A).” for “A). The suspension was sonicated and centrifuged at 12,000× g for 30 min, the supernatant was filtered through a 0.22 µm membrane and passed through a HiTrap His column (10318950; Cytiva, Global Life Sciences Solutions USA, LLC., Marlborough, MA, USA).”

[7] = target: T3, His-tagged recombinant EiEPSPS, Pro106Leu (LL) (Eleusine indica, UniProt Q95AK0, P107L); assay: EPSPS Michaelis-Menten kinetics, Pro106Leu; format: biochemical; conditions: P106L mutant vs natural EPSPS
T3 sequence (Q95AK0 43-445 P107L): T1 sequence (Q95AK0 43-445) with P65L
Source text: as §7
as §1, with “A).” for “A). The suspension was sonicated and centrifuged at 12,000× g for 30 min, the supernatant was filtered through a 0.22 µm membrane and passed through a HiTrap His column (10318950; Cytiva, Global Life Sciences Solutions USA, LLC., Marlborough, MA, USA).”

[8] = target: T4, His-tagged recombinant EiEPSPS, Thr102Ile + Pro106Ser (IISS) (Eleusine indica, UniProt Q95AK0, P107S/T103I); assay: EPSPS Michaelis-Menten kinetics, Thr102Ile + Pro106Ser; format: biochemical; conditions: TIPS mutant vs natural EPSPS
T4 sequence (Q95AK0 43-445 T103I/P107S): T1 sequence (Q95AK0 43-445) with T61I, P65S
Source text: as §7
as §1, with “A).” for “A). The suspension was sonicated and centrifuged at 12,000× g for 30 min, the supernatant was filtered through a 0.22 µm membrane and passed through a HiTrap His column (10318950; Cytiva, Global Life Sciences Solutions USA, LLC., Marlborough, MA, USA).”

[9] = system: E. indica LL population (homozygous P106L in EPSPS); assay: Whole-plant dose-response assay, LL population; format: in vivo, Eleusine indica; conditions: glyphosate alone, fresh weight at 21 DAT, value ± SE
Description: (§8) Plants with homozygous mutations Pro106Ser (P106S), Pro106Leu (P106L), Thr102Ile + Pro106Ser (TIPS), and WT were screened from a population with a similar background, as we previously described. […] Plants with the same confirmed genotype were cultured (bulk in isolation) and the seeds were produced and purified. The purified subpopulations were named SS, LL, IISS, and WT. […] The plants were cultured under greenhouse conditions of day and night temperatures of 30 °C and 20 °C (±2 °C), respectively, with a relative humidity of 60% ± 20%, and a 14-h photoperiod, during which LEDs provided light intensity of 300 μmol m^−2 s^−1. After thinning, eight plants per pot were maintained. […] [18]. Thereafter, P450- (10 mM piperonylbutoxide) and GST-inhibitors (3 mM 4-chloro-7-nitro-1, 2, 3-benzoxadiazole) were sprayed to exclude other non-target-site resistance mechanisms. […] Water and inhibitors were applied through control spraying (Supplementary Tables S1 and S3). The fresh weight of the fresh aboveground tissues was measured at 21 DAT. Whole-plant assays were repeated twice in a completely randomised design.
(§9) Data from the whole-plant assays and emerged seedlings were analysed through nonlinear regression using a log-logistic model: y = y0 + a/[1 + (x/x0)^b] in SigmaPlot 12.0 (Systat Software, San Jose, CA, USA).

[10] = system: E. indica SS population (homozygous P106S in EPSPS); assay: Whole-plant dose-response assay, SS population; format: in vivo, Eleusine indica; conditions: glyphosate alone, fresh weight at 21 DAT, value ± SE
Description: as §8, §9

[11] = system: E. indica IISS population (homozygous TIPS in EPSPS); assay: Whole-plant dose-response assay, IISS population; format: in vivo, Eleusine indica; conditions: glyphosate alone, fresh weight at 21 DAT, value ± SE
Description: as §8, §9

[12] = system: wild type (WT) E. indica; assay: Shikimate accumulation assay, WT population; format: in vivo, Eleusine indica; conditions: 1800 g a.e. ha^−1 (7.1 mM) glyphosate, seven DAT
Description: Leaf tissue samples collected on 1, 3, 5, and 7 DAT were finely ground in liquid nitrogen, added to 1.0 mL of 0.25 mol L^−1 cold HCl, and centrifuged at 12,000 rpm for 30 min. Supernatants (0.2 mL) were incubated with 2 mL of 1% periodic acid for 3 h at room temperature. Thereafter, 2 mL of 1 mol L^−1 NaOH and 1.2 mL of 0.1 mol L^−1 glycine were added, then the optical density of 0.2 mL/well was determined in 96-well plates at 380 nm using a Tecan Infinite 200 Pro plate reader (Tecan Group Ltd., Männedorf, Switzerland). The results for all samples were compared with a standard curve of 0.1–400.0 μg shikimate and are expressed as μg of shikimate g^−1 fresh tissue. This experiment was repeated twice.

[13] = pH 7.5, read-out: Kon, association rate constant

Compound	Kd ([1]; Wild type EPSPS, Octet SSA biosensors, HEPES pH 7.5, read-out: KD, dissociation constant (KD = Koff/Kon))	kon ([1]; Wild type EPSPS, Octet SSA biosensors, HEPES pH 7.5, read-out: Kon, association rate constant)	Kd [2]	kon [2, 13]	Kd [3]	kon [3, 13]	Kd [4]	kon ([4]; Thr102Ile + Pro106Ser EPSPS, Octet SSA biosensors, HEPES pH 7.5, read-out: Kon, association rate constant)	Kd [5]	Km (PEP) fold relative to natural EPSPS [6]	Km (PEP) fold relative to natural EPSPS [7]	Km (PEP) fold relative to natural EPSPS [8]	Kd [1]	x0, herbicide dose required for 50% plant growth reduction (GR50) [9]	x0, herbicide dose required for 50% plant growth reduction (GR50) [10]	x0, herbicide dose required for 50% plant growth reduction (GR50) [11]	shikimate accumulation in leaf tissues [12]
C=C(OP(=O)(O)O)C(=O)O [PEP, phosphoenolpyruvate]	3100 µM	8 M⁻¹ s⁻¹	1100 µM	31.3 M⁻¹ s⁻¹	1200 µM	31.8 M⁻¹ s⁻¹	2000 µM	33 M⁻¹ s⁻¹	1100 to 3100 µM	0.7 fold	2.4 fold	4.1 fold					
O=C(O)CNCP(=O)(O)O [Glyphosate, glyphosate]			28 µM		25 µM		23 µM						58 µM	707.2 ± 122.1 g a.e. ha^-1	540.5 ± 25.6 g a.e. ha^-1	3272.9 ± 164.1 g a.e. ha^-1	366.4 µg/g
